The source of these data is US8497380B2, “Substituted acetophenones useful as PDE4 inhibitors” (Leo Pharma A/S, priority 2006, dated 2013).

pIC50: −log10 of the molar value.

This assay concerns Human peripheral blood mononuclear cells (PBMC). The assay can be described thus: TNFalfa-Release. It counts as cell-based. The note with it: inhibition of TNF-a secretion, PBMC pre-incubated 30 minutes, stimulated 18 hours with lipopolysaccharide. The essentials: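 Buffy-coat PBMC at 5×105 c/ml in RPMI1640 with 2% FCS were pre-incubated 30 min with compound, then stimulated 18 h with LPS 1 mg/ml. Supernatant TNF-a measured by enzyme immunoassay; pIC50 from inhibition curves relative to LPS-stimulated and unstimulated wells.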
For the molecule `COc1ccc(C(=O)Cc2c(Cl)cncc2Cl)c(OCC(=O)NC2CCCCCC2)c1OC` [Compound 217, N-Cycloheptyl-2-{6-(2-(3,5-dichloro-pyridin-4-yl)-acetyl)-2,3-dimethoxy-phenoxy}-acetamide], the negative logarithm of the IC50 (pIC50) is > 6.00.

Consider `COc1ccc(C(=O)Cc2c(Cl)cncc2Cl)c(OCCc2ccc(C#N)cc2)c1OC` [Compound 278, 4-(2-{6-[2-(3,5-Dichloro-pyridin-4-yl)-acetyl]-2,3-dimethoxy-phenoxy}-ethyl)-benzonitrile], for which the negative logarithm of the IC50 (pIC50) was > 6.00.

With `COc1ccc(C(=O)Cc2c(Cl)cncc2Cl)c(OCc2nc3ccccc3o2)c1OC` [Compound 115, 1-[2-(Benzooxazol-2-ylmethoxy)-3,4-dimethoxy-phenyl]-2-(3,5-dichloro-pyridin-4-yl)-ethanone], the negative logarithm of the IC50 (pIC50) was > 6.00.

With `COc1ccc(C(=O)Cc2c(Cl)cncc2Cl)c(OCC(=O)NCCC(C)C)c1OC` [Compound 212, 2-{6-[2-(3,5-Dichloro-pyridin-4-yl)-acetyl]-2,3-dimethoxy-phenoxy}-N-(3-methyl-butyl)-acetamide], the pIC50 is > 6.00.

For the molecule `COc1ccc(C(=O)Cc2c(Cl)cncc2Cl)c(OC(F)F)c1OC(F)F` [Compound 107, 1-(2,3-Bis-difluoromethoxy-4-methoxy-phenyl)-2-(3,5-dichloro-pyridin-4-yl)-ethanone], the pIC50 is > 6.00.

In the case of `CCCCOc1c(C(=O)Cc2c(Cl)cncc2Cl)ccc(OC)c1OC` [Compound 140, 1-(2-Butoxy-3,4-dimethoxy-phenyl)-2-(3,5-dichloro-pyridin-4-yl)-ethanone], the pIC50 was > 6.00.

For `CCOC(=O)CCCCOc1c(C(=O)Cc2c(Cl)cncc2Cl)ccc(OC)c1OC` [Compound 182, 5-{6-[2-(3,5-Dichloro-pyridin-4-yl)-acetyl]-2,3-dimethoxy-phenoxy}-pentanoic acid ethyl ester], the negative-log IC50 (pIC50) is > 6.00.

`COc1ccc(C(=O)Cc2c(Cl)cncc2Cl)c(OCC(=O)NCc2ccccc2)c1OC` [Compound 203, N-Benzyl-2-{6-[2-(3,5-dichloro-pyridin-4-yl)-acetyl]-2,3-dimethoxy-phenoxy}-acetamide]: the pIC50 was > 6.00.

With `COc1ccc(C(=O)Cc2c(Cl)cncc2Cl)c(OCC(=O)NC2CCCC2)c1OC` [Compound 211, N-Cyclopentyl-2-{6-[2-(3,5-dichloro-pyridin-4-yl)-acetyl]-2,3-dimethoxy-phenoxy}-acetamide], the pIC50 was > 6.00.

On to `CCOc1c(OC)ccc(C(=O)Cc2c(Cl)cncc2Cl)c1OCc1nnc(C2CC2)s1` [Compound 264, 1-[2-(5-Cyclopropyl-[1,3,4]thiadiazol-2-ylmethoxy)-3-ethoxy-4-methoxy-phenyl]-2-(3,5-dichloro-pyridin-4-yl)-ethanone], for which the negative-log IC50 (pIC50) is > 6.00.

Regarding `COc1ccc(C(=O)Cc2c(Cl)cncc2Cl)c(OCC(=O)NC(C)C)c1OC` [Compound 209, 2-{6-[2-(3,5-Dichloro-pyridin-4-yl)-acetyl]-2,3-dimethoxy-phenoxy}-N-isopropyl-acetamide], the negative-log IC50 (pIC50) is > 6.00.

Turning to `COc1ccc(C(=O)Cc2c(Cl)cncc2Cl)c(OCCc2ccccc2)c1OC` [Compound 112, 2-(3,5-Dichloro-pyridin-4-yl)-1-(3,4-dimethoxy-2-phenethyloxy-phenyl)-ethanone], the pIC50 was > 6.00.

As to `COc1ccc(C(=O)Cc2c(Cl)cncc2Cl)c(OCC(=O)NC2CCCCC2)c1OC` [Compound 215, N-Cyclohexyl-2-{6-[2-(3,5-dichloro-pyridin-4-yl)-acetyl]-2,3-dimethoxy-phenoxy}-acetamide], the negative-log IC50 (pIC50) was > 6.00.

In the case of `COc1ccc(C(=O)Cc2c(Cl)cncc2Cl)c(OCCN2C(=O)c3ccccc3C2=O)c1OC` [Compound 185, 2-(2-{6-[2-(3,5-Dichloro-pyridin-4-yl)-acetyl]-2,3-dimethoxy-phenoxy}-ethyl)-isoindole-1,3-dione], the pIC50 is > 6.00.

Regarding `C=CCOc1c(OC)ccc(C(=O)Cc2c(Cl)cncc2Cl)c1OC` [Compound 193, 1-(3-Allyloxy-2,4-dimethoxy-phenyl)-2-(3,5-dichloro-pyridin-4-yl)-ethanone], the negative-log IC50 (pIC50) is > 6.00.

In the case of `C=CCOc1c(OC)ccc(C(=O)Cc2c(Cl)cncc2Cl)c1OCCc1ccc(F)cc1` [Compound 269, 1-{3-Allyloxy-2-[2-(4-fluoro-phenyl)-ethoxy]-4-methoxy-phenyl}-2-(3,5-dichloro-pyridin-4-yl)-ethanone], the pIC50 was > 6.00.

For `COc1ccc(C(=O)Cc2c(Cl)cncc2Cl)c(OCC(=O)NCCNC(C)=O)c1OC` [Compound 251, N-(2-Acetylamino-ethyl)-2-{6-[2-(3,5-dichloro-pyridin-4-yl)-acetyl]-2,3-dimethoxy-phenoxy}-acetamide], the negative-log IC50 (pIC50) was > 6.00.

`COc1ccc(C(=O)Cc2c(Cl)cncc2Cl)c(OCC(=O)NCc2cccc(C)c2)c1OC` [Compound 239, 2-{6-[2-(3,5-Dichloro-pyridin-4-yl)-acetyl]-2,3-dimethoxy-phenoxy}-N-(3-methyl-benzyl)-acetamide]: the pIC50 was > 6.00.

In the case of `C=CCOc1c(C(=O)Cc2c(Cl)cncc2Cl)ccc(OC)c1OC` [Compound 114, 1-(2-Allyloxy-3,4-dimethoxy-phenyl)-2-(3,5-dichloro-pyridin-4-yl)-ethanone], the negative-log IC50 (pIC50) was > 6.00.

In the case of `COc1ccc(C(=O)Cc2c(Cl)cncc2Cl)c(OC)c1OCC1CC1` [Compound 189, 1-(3-Cyclopropylmethoxy-2,4-dimethoxy-phenyl)-2-(3,5-dichloro-pyridin-4-yl)-ethanone], the pIC50 was > 6.00.

For `C=CCOc1c(OC)ccc(C(=O)Cc2c(Cl)cncc2Cl)c1OCc1ccccc1C#N` [Compound 267, 2-{2-Allyloxy-6-[2-(3,5-dichloro-pyridin-4-yl)-acetyl]-3-methoxy-phenoxymethyl}-benzonitrile], the negative-log IC50 (pIC50) is > 6.00.

Consider `COc1ccc(C(=O)Cc2c(Cl)cncc2Cl)c(OCCc2ccccc2F)c1OC` [Compound 130, 2-(3,5-Dichloro-pyridin-4-yl)-1-(2-[2-(2-fluoro-phenyl)-ethoxy)-3,4-dimethoxy-phenyl]-ethanone], for which the negative logarithm of the IC50 (pIC50) was > 6.00.

Take `CCCNC(=O)COc1c(C(=O)Cc2ccncc2Br)ccc(OC)c1OC` [Compound 292, 2-{6-[2-(3-Bromo-pyridin-4-yl)-acetyl]-2,3-dimethoxy-phenoxy}-N-propyl-acetamide]: the negative logarithm of the IC50 (pIC50) was > 6.00.

In the case of `COc1ccc(C(=O)Cc2c(Cl)cncc2Cl)c(OCCc2cccc(Br)c2)c1OC` [Compound 127, 1-{2-[2-(3-Bromo-phenyl)-ethoxy]-3,4-dimethoxy-phenyl}-2-(3,5-dichloro-pyridin-4-yl)-ethanone], the pIC50 was > 6.00.

For the molecule `C=CCOc1c(OC)ccc(C(=O)Cc2c(Cl)cncc2Cl)c1OCCc1ccccc1` [Compound 268, 1-(3-Allyloxy-4-methoxy-2-phenethyloxy-phenyl)-2-(3,5-dichloro-pyridin-4-yl)-ethanone], the negative-log IC50 (pIC50) is > 6.00.

On to `COc1ccc(C(=O)Cc2c(Cl)cncc2Cl)c(OCC(=O)NCCCc2ccccc2)c1OC` [Compound 243, 2-{6-[2-(3,5-Dichloro-pyridin-4-yl)-acetyl]-2,3-dimethoxy-phenoxy}-N-(3-phenyl-propyl)-acetamide], for which the pIC50 was > 6.00.

In the case of `COc1ccc(C(=O)Cc2c(Cl)cncc2Cl)c(OCC(=O)NCCO)c1OC` [Compound 220, 2-{6-[2-(3,5-Dichloro-pyridin-4-yl)-acetyl]-2,3-dimethoxy-phenoxy}-N-(2-hydroxy-ethyl)-acetamide], the negative logarithm of the IC50 (pIC50) was > 6.00.

For `COCCOc1c(C(=O)Cc2c(Cl)cncc2Cl)ccc(OC)c1OC` [Compound 109, 2-(3,5-Dichloro-pyridin-4-yl)-1-[3,4-dimethoxy-2-(2-methoxy-ethoxy)-phenyl]-ethanone], the pIC50 was > 6.00.

As for `COc1ccc(C(=O)Cc2c(Cl)cncc2Cl)c(OCC(=O)O)c1OC` [Compound 504, {6-[2-(3,5-Dichloro-pyridin-4-yl)-acetyl]-2,3-dimethoxy-phenoxy}-acetic acid], the pIC50 is > 6.00.

With `COc1ccc(C(=O)COc2c(C(=O)Cc3c(Cl)cncc3Cl)ccc(OC)c2OC)cc1` [Compound 146, 2-(3,5-Dichloro-pyridin-4-yl)-1-{3,4-dimethoxy-2-[2-(4-methoxy-phenyl)-2-oxo-ethoxy]-phenyl}-ethanone], the pIC50 is > 6.00.

Turning to `CCCNC(=O)COc1c(C(=O)Cc2c(Br)cncc2Br)ccc(OC)c1OC` [Compound 293, 2-{6-[2-(3,5-Dibromo-pyridin-4-yl)-acetyl]-2,3-dimethoxy-phenoxy}-N-propyl-acetamide], the pIC50 was > 6.00.

In the case of `COc1ccc(C(=O)Cc2c(Cl)cncc2Cl)c(O)c1OCC1CC1` [Compound 261, 1-(3-Cyclopropylmethoxy-2-hydroxy-4-methoxy-phenyl)-2-(3,5-dichloro-pyridin-4-yl)-ethanone], the negative-log IC50 (pIC50) is > 6.00.

In the case of `COc1ccc(C(=O)Cc2c(Cl)cncc2Cl)c(OCc2c(F)cccc2C(F)(F)F)c1OC` [Compound 170, 2-(3,5-Dichloro-pyridin-4-yl)-1-[2-(2-fluoro-6-trifluoromethyl-benzyloxy)-3,4-dimethoxy-phenyl]-ethanone], the pIC50 was > 6.00.

With `COc1ccc(C(=O)Cc2c(Cl)cncc2Cl)c(OCc2cccc(Cl)c2)c1OC` [Compound 144, 1-[2-(3-Chloro-benzyloxy)-3,4-dimethoxy-phenyl]-2-(3,5-dichloro-pyridin-4-yl)-ethanone], the negative-log IC50 (pIC50) was > 6.00.

Consider `COc1ccc(C(=O)Cc2c(Cl)cncc2Cl)c(OCCc2ccc([S+](C)[O-])cc2)c1OC` (stereo not drawn) [Compound 281, 2-(3,5-Dichloro-pyridin-4-yl)-1-{2-[2-(4-methanesulfinyl-phenyl)-ethoxy]-3,4-dimethoxy-phenyl}-ethanone], for which the pIC50 is > 6.00.

`COc1ccc(C(=O)Cc2c(Cl)cncc2Cl)c(OCC(=O)NCc2ccccc2C)c1OC` [Compound 237, 2-{6-[2-(3,5-Dichloro-pyridin-4-yl)-acetyl]-2,3-dimethoxy-phenoxy}-N-(2-methyl-benzyl)-acetamide]: the pIC50 is > 6.00.
